Like-named read-outs stand apart in the source and are kept apart here.
Experiments:
[1] = aqueous solution; cited from earlier work
[2] = test system: L. monocytogenes; test: Microbial growth/survival of L. monocytogenes in frankfurter samples; assay type: cell-based; details: equal dosage levels, storage 5° C., no nitrites
Procedure: No nitrites were added to the samples. […] The frankfurters were subject to sensory testing.

[3] = test system: B. cereus and B. subtilis; test: Bacillus spp. counts in inoculated bread post baking; assay type: cell-based; details: salt level 1.2% w/w, immediately post baking and after cooling
Procedure: (§1) A salt sample according to Example 7 of the invention was used to test the microbial growth in bread. […] Inoculated and uninoculated loaves (controls) were microbiologically analyzed over 6 days storage at 21° C. and 25° C. Analysis was carried out on day 0 (post baking and after cooling), day 1, day 2 and day 6. The results highlighted two main differences between the two salt types.

[4] = test system: total aerobic viable counts; test: Total aerobic viable counts in un-inoculated control bread during storage; assay type: cell-based; details: end of storage (Day 6), both storage temperatures (21° C. and 25° C.)
Procedure: as §1, with “Analysis was carried out on day 0 (post baking and after cooling), day 1, day 2 and day 6.” left out

[5] = cited from earlier work

For [Cl-].[Cl-].[Mg+2] [MgCl2, magnesium chloride], the stability constant [1] is listed as “zero”.
With [Cl-].[Na+] [NaCl, sodium chloride] the “storage time until increase of L. monocytogenes to a count of 4 Log” value [2] was 23 days, the “log drop in Bacillus spp. counts” value [3] was “up to 3.4 Log” and the “total aerobic viable counts” value [4] was 10^4-10^5 cfu/g.
For [Cl-].[K+] [KCl, potassium chloride], the Aqueous solubility ([5]; Temperature 0 °C) is given as 21.74 mass-% of solute, the Aqueous solubility ([5]; Temperature 20 °C) is given as 25.39 mass-% of solute and the Aqueous solubility ([5]; Temperature 40 °C) is given as 28.59 mass-% of solute. The Aqueous solubility ([5]; Temperature 60 °C) was 31.40 mass-% of solute, the Aqueous solubility ([5]; Temperature 80 °C) was 33.86 mass-% of solute and the Aqueous solubility ([5]; Temperature 100 °C) was 36.05 mass-% of solute.
